Assay results published in publication PMC5358776, “Insight into the mechanism of action of temporin-SHa, a new broad-spectrum antiparasitic and antibacterial agent” (PLoS ONE, 2017).
Converted amounts (≈) assume the structure as drawn. Where two headings read alike, the source gives them in different places. Where no end group is shown, it is not given here.

Tests used:
[1] = test system: L. infantum promastigotes; experiment: DNA fragmentation, TUNEL assay; format: cell-based, Leishmania infantum; conditions: 50 μM, 48 h
Method: (§1) Mid-log phase L. infantum promastigotes were synchronized at the G1/S border by treating with 10 mM hydroxyurea for 24 h at 26°C [81]. […] Then 400 μl of different concentrations of peptide (12.5, 25 and 50 μM, final concentrations) were added to 1.6 ml of the cell suspension. After 48 h incubation, samples were split into two volumes (2 x 1 ml) to analyze the cell cycle and DNA fragmentation. For cell cycle analysis, the first sample (1 ml) was centrifuged (1,000 x g, 10 min) and 100 μl of HBSS was added to the pellet. Then, 900 μl of cold 70% ethanol was gently added drop-wise for cell fixation. After an overnight incubation at -20°C, cells were washed (16,000 x g, 10 min, 4°C) with HBSS and resuspended in 1 ml of HBSS containing 100 μg of RNase A (Sigma-Aldrich) and 5 μg of propidium iodide. After 30 min of incubation at 37°C, samples were passed 5 times through a sterile plastic syringe fitted with a 27 gauge needle and analyzed by flow cytometry (FACSCalibur). For DNA fragmentation analysis, a TUNEL assay was performed on the second 1 ml sample. […] DNA strand breaks were detected by the addition of biotinylated nucleotides to the free 3′-hydroxyl ends of the DNA fragments using TdT (terminal deoxynucleotidyl transferase) and tagged with a streptavidin-FITC conjugate for subsequent detection by flow cytometry. […]

[2] = test system: L. infantum promastigotes; experiment: Cell cycle analysis, sub-G1 phase; format: cell-based, Leishmania infantum; conditions: 50 μM, 48 h
Method: as §1

E. coli ATCC 25922 [3] = experiment: Multipassage resistance selection; format: cell-based, Escherichia coli; conditions: for fold increase in the MIC against control bacteria at the end of the selection: lineages grown without antimicrobial agent, passage 55
[4] = test system: Gram-negative and Gram-positive bacteria and yeasts/fungi; experiment: MIC, whole panel of strains; format: cell-based; conditions: for MIC: against all strains
E. coli ATCC 25922 [5] = conditions: ATCC 25922
Method: (§2) Listeria ivanovii Li4pVS2 (kindly provided by Jean-Marc Berjeaud, Université de Poitiers, France), and Streptococcus pyogenes ATCC 19615 (ATCC) were cultured in brain heart infusion (BHI, Sigma-Aldrich) medium under the same conditions.
(§3) Activity against bacteria and yeasts was assessed with a liquid growth inhibition assay performed in 96-well microtitration plates, according to a previously described protocol [14], using mid-logarithmic phase cultures diluted in Mueller-Hinton (MH, Dominique Dutscher) broth (LB broth for E. faecalis strain and YPD medium for yeasts/fungi) to an A630 value of 0.01 (10^6 cfu/ml) and 2-fold serial dilutions of synthetic temporin (200–1 μM, final concentrations). The minimal inhibitory concentration (MIC) was determined as the mean value of three independent experiments, each performed in triplicate with negative (H2O) and positive (0.7% formaldehyde) controls.

E. coli ML-35p = conditions: MH broth, 10^6 cfu/ml; mean of 3 independent experiments in triplicate
Method: as §2, §3

P. aeruginosa ATCC 27853 = conditions: ATCC 27853
Method: as §2, §3

[6] = test system: S. enterica (serotype Enteritidis); conditions: serotype Enteritidis
Method: as §3

A. baumannii ATCC 19606 = conditions: ATCC 19606
Method: as §3

K. pneumoniae ATCC 13883 = conditions: ATCC 13883
Method: as §3

S. aureus ATCC 25923 = conditions: ATCC 25923
Method: as §3

S. aureus ST1065 = conditions: ST1065
Method: as §3

E. faecalis ATCC 29212 = conditions: ATCC 29212
Method: as §2, §3

C. albicans ATCC 90028 = conditions: ATCC 90028, 96 h
Method: (§4) Candida albicans ATCC 90028, Candida parapsilosis ATCC 22019 (ATCC), and Saccharomyces cerevisiae (laboratory collection) were cultured in yeast peptone dextrose (YPD, Sigma-Aldrich) medium at 30°C.
(§5) The minimal inhibitory concentration (MIC) was determined as the mean value of three independent experiments, each performed in triplicate with negative (H2O) and positive (0.7% formaldehyde) controls.

[7] = test system: C. parapsilosis ATCC 22019; conditions: ATCC 22019, 96 h
Method: as §4, §5

S. cerevisiae = conditions: 96 h
Method: as §4, §5

Rat erythrocytes = conditions: 1 h
Method: (§6) Hemolytic assays were also performed using erythrocytes obtained from fresh blood samples of Wistar male rats (Charles River Laboratories, France). The hemolytic activity was measured by incubating the peptide (1–200 μM, final concentrations) with erythrocytes (2 x 10^7 cells) in PBS (100 μl) for 1 h at 37°C, as previously described [23]. A parallel incubation in the presence of 0.1% (v/v) Triton-X100 was carried out to determine the absorbance associated with 100% hemolysis. […] For THP-1-derived macrophages, viability was determined by Trypan blue staining after incubation with peptide (1–100 μM, final concentrations). LC50 (average concentration of the peptide producing 50% cell lysis) and IC50 values were determined with GraphPad Prism 6.0 software and correspond to the mean obtained from three independent experiments carried out with three (erythrocytes, THP-1 monocytes, HepG2 and HFF cells) or six replicates (THP-1-derived macrophages).
(§7) IC50 or LC50 values were determined for the different human cells mentioned above in the cytotoxicity assays.

S. pyogenes ATCC 19615 = conditions: ATCC 19615
Method: as §2, §3

Human erythrocytes = conditions: 1 h
Method: as §6, §7

Human THP-1 monocytes = conditions: 72 h
Human HepG2 = conditions: MTT, 72 h, 37°C, 50–600 μM; mean of 3 independent experiments in triplicate
S. aureus ATCC 43300 = conditions: strain resistant to methicillin and oxacillin; MH broth, 10^6 cfu/ml; mean of 3 independent experiments in triplicate
Method: as §2, §3

S. aureus ATCC BAA-44 = conditions: ATCC BAA-44
Gram-negative bacteria = conditions: 6 Gram-negative strains of Table 3
Gram-positive bacteria = conditions: 7 Gram-positive strains of Table 3
[8] = test system: L. infantum (antimony resistant) promastigotes; conditions: antimony-resistant parasites
Method: (§8) Antiparasitic activity was evaluated against trypanosomatids, such as Leishmania and Trypanosoma. Antileishmanial activity was determined either by a luminescence-based assay (L. infantum, L. major and L. braziliensis) or by cell counting (FACSCalibur flow cytometer, Becton-Dickinson Biosciences, Woburn, MA, USA) after staining with propidium iodide (L. tropica and L. amazonensis), as previously described [23], using promastigotes or axenic amastigotes (1.25 x 10^6 parasites/ml) in mid-log phase and 5-fold serial dilutions of synthetic temporin (50–3.1 μM, final concentrations). Antitrypanosomal activity against T. brucei gambiense and T. cruzi was assessed by cell counting, similar to the L. tropica and L. amazonensis analysis, after incubation of the parasites (96 h for T. brucei gambiense and 120 h for T. cruzi) with the synthetic temporin, as previously described [23]. The half maximal inhibitory concentration (IC50) value was determined with GraphPad Prism 6.0 software (GraphPad Software, La Jolla, CA, USA) using a sigmoidal dose response (variable slope) curve fitting equation. The results are expressed as the means of three independent experiments performed in triplicate (luminescence-based assays) or in duplicate (cell counting-based assays).

L. major promastigotes = conditions: promastigotes, 96 h
Method: (§9) L. infantum axenic amastigotes were differentiated from promastigotes in MAA medium (supplemented with 20% FCS) and were grown at 37°C in 5% CO2 [23].
(§10) Antiparasitic activity was evaluated against trypanosomatids, such as Leishmania and Trypanosoma. Antileishmanial activity was determined either by a luminescence-based assay (L. infantum, L. major and L. braziliensis) or by cell counting (FACSCalibur flow cytometer, Becton-Dickinson Biosciences, Woburn, MA, USA) after staining with propidium iodide (L. tropica and L. amazonensis), as previously described [23], using promastigotes or axenic amastigotes (1.25 x 10^6 parasites/ml) in mid-log phase and 5-fold serial dilutions of synthetic temporin (50–3.1 μM, final concentrations). […] The half maximal inhibitory concentration (IC50) value was determined with GraphPad Prism 6.0 software (GraphPad Software, La Jolla, CA, USA) using a sigmoidal dose response (variable slope) curve fitting equation. The results are expressed as the means of three independent experiments performed in triplicate (luminescence-based assays) or in duplicate (cell counting-based assays).

[9] = test system: L. braziliensis promastigotes; conditions: 96 h
Method: as §9, §10

[10] = test system: L. amazonensis promastigotes; conditions: promastigotes, 96 h
Method: as §9, §10

[11] = test system: L. infantum (axenic) amastigotes; conditions: axenic) amastigotes, 96 h
Method: as §9, §10

[12] = test system: L. infantum (intramacrophagic) amastigotes in THP-1-derived macrophages; conditions: intramacrophagic) amastigotes in THP-1-derived macrophages, 24 h
Method: Leishmania infantum (strain MHOM/MA/67/ITMAP-263), Leishmania major (strain MHOM/SU/73/5-ASKH), Leishmania tropica (strain MHOM/SU/74/SAFK27), Leishmania amazonensis (strain MHOM/BR/73/M2269), and Leishmania braziliensis (strain MHOM/BR/75/M2904) promastigotes (kindly provided by Francine Pratlong, Centre National de Référence des Leishmania, Montpellier, France) were cultured at 26°C in SDM-79 medium supplemented with 10% fetal calf serum (FCS, Gibco) [23]. […] L. infantum-infected human macrophages were obtained from human THP-1 monocytes, as previously described [23, 78].
Intramacrophagic leishmanicidal activity of the peptides was assessed by incubating L. infantum-infected human macrophages with 2-fold serial dilutions of peptide (50–2.5 μM, final concentrations) for 4 days, as previously described [23]. THP-1-derived macrophages were infected with promastigotes from late log phase at a density of 5 x 10^5 cells/well (ratio 10:1) in RPMI medium for 24 h at 37°C with 5% CO2. […] The results are expressed as the means of two experiments performed with six replicates.

T. brucei gambiense = conditions: gambiense, 96 h
Method: as §8

T. cruzi epimastigotes = conditions: epimastigotes, 120 h
Method: as §8

Human fibroblasts (HFF) = conditions: 72 h
[13] = test system: promastigotes of several species of Leishmania; conditions: 96 h
Method: as §8

[14] = test system: Human THP-1-derived macrophages; experiment: Cytotoxicity, Trypan blue staining; conditions: 1–100 μM, mean of 3 independent experiments, six replicates
Method: as §6, §7

[15] = test system: L. infantum promastigotes; conditions: promastigotes, 96 h
Method: as §9, §10

Method for L. ivanovii: as §2, §3

## CCCCCCCCCCCCCCCCOP(=O)([O-])OCC[N+](C)(C)C [Miltefosine, hexadecylphosphocholine]
[1]
  DNA fragmentation (FITC-positive cells): approximately 65%
[2]
  Sub-G1 phase (% of cells): 29.1 % of cells
[2]; listed as miltefosine
  Sub-G1 phase (% of cells): 29 % of cells

## CC1(C)S[C@@H]2[C@H](NC(=O)[C@H](N)c3ccccc3)C(=O)N2[C@H]1C(=O)O [ampicillin]
E. coli ATCC 25922 [3]; Escherichia coli, ATCC25922, read-out: MIC (initial, before selection)
  MIC: 12.5 µM (≈ 4.37 µg/mL)
E. coli ATCC 25922 [3]; lineages adapted from MIC/16 to MIC, 55 passages
  fold increase in the MIC against adapted E. coli lineages: 6 fold
E. coli ATCC 25922 [3]
  fold increase in the MIC against control bacteria at the end of the selection: 4 fold

## D-temporin-SHa [D-SHa]
E. coli ATCC 25922 [3]
  fold increase in the MIC against control bacteria at the end of the selection: ~2 fold

## FAKGIAGMAGKLF-NH2 [[A^2,6,9, K^3]SHa, [A^2,6,9, K^3]temporin-SHa]
[4]
  MIC: > 200 µM
E. coli ATCC 25922 [5]
  MIC: > 200 µM
E. coli ML-35p
  MIC: > 200 µM
P. aeruginosa ATCC 27853
  MIC: > 200 µM
[6]
  MIC: > 200 µM
A. baumannii ATCC 19606
  MIC: > 200 µM
K. pneumoniae ATCC 13883
  MIC: > 200 µM
S. aureus ATCC 25923
  MIC: > 200 µM
S. aureus ST1065
  MIC: > 200 µM
L. ivanovii
  MIC: > 200 µM
E. faecalis ATCC 29212
  MIC: > 200 µM
C. albicans ATCC 90028
  MIC: > 200 µM
[7]
  MIC: > 200 µM
S. cerevisiae
  MIC: > 200 µM
Rat erythrocytes
  LC50: > 200 µM

## FASGIAGMAGKLF-NH2 [[A^2,6,9]SHa, [A^2,6,9]temporin-SHa]
[4]
  MIC: > 200 µM
E. coli ATCC 25922 [5]
  MIC: > 200 µM
E. coli ML-35p
  MIC: > 200 µM
P. aeruginosa ATCC 27853
  MIC: > 200 µM
[6]
  MIC: > 200 µM
A. baumannii ATCC 19606
  MIC: > 200 µM
K. pneumoniae ATCC 13883
  MIC: > 200 µM
S. aureus ATCC 25923
  MIC: > 200 µM
S. aureus ST1065
  MIC: > 200 µM
S. pyogenes ATCC 19615
  MIC: > 200 µM
L. ivanovii
  MIC: > 200 µM
E. faecalis ATCC 29212
  MIC: > 200 µM
C. albicans ATCC 90028
  MIC: > 200 µM
[7]
  MIC: > 200 µM
S. cerevisiae
  MIC: > 200 µM
Rat erythrocytes
  LC50: > 200 µM
Human erythrocytes
  LC50: > 100 µM
Human THP-1 monocytes
  IC50: > 60 µM
Human HepG2
  IC50: > 600 µM

## FLKGIVGMLGKLF-NH2 [[K^3]SHa, [K^3]temporin-SHa]
[4]; all the tested bacteria
  MIC (range over strains): 1 to 6 µM
E. coli ATCC 25922 [5]
  MIC: 3 µM
E. coli ML-35p
  MIC: 3 µM
P. aeruginosa ATCC 27853
  MIC: 6 µM
[6]
  MIC: 6 µM
A. baumannii ATCC 19606
  MIC: 3 µM
K. pneumoniae ATCC 13883
  MIC: 3 µM
S. aureus ATCC 25923
  MIC: 3 µM
S. aureus ST1065
  MIC: 3 µM
S. aureus ATCC 43300
  MIC: 3 µM
S. aureus ATCC BAA-44
  MIC: 3 µM
S. pyogenes ATCC 19615
  MIC: 1 µM
L. ivanovii
  MIC: 3 µM
E. faecalis ATCC 29212
  MIC: 6 µM
C. albicans ATCC 90028
  MIC: 6 µM
[7]
  MIC: 25 µM
S. cerevisiae
  MIC: 3 µM
Gram-negative bacteria
  MICGM (geometric mean of the MIC values): 3.8 µM
Gram-positive bacteria
  MICGM (geometric mean of the MIC values): 2.8 µM
Yeasts/fungi; 3 yeast/fungal strains of Table 3
  MICGM (geometric mean of the MIC values): 7.7 µM
Yeasts/fungi; yeasts/fungi
  MIC (range over strains): 3 to 25 µM
[8]
  IC50: 9 µM
L. major promastigotes
  IC50: 10 µM
[9]
  IC50: 5 µM
[10]
  IC50: 8 µM
[11]
  IC50: 20 µM
[12]
  IC50: 5 µM
T. brucei gambiense
  IC50: 16 µM
T. cruzi epimastigotes
  IC50: 10 µM
Rat erythrocytes
  LC50: 26 µM
Human erythrocytes
  LC50: 50 µM
Human THP-1 monocytes
  IC50: 48 µM
Human HepG2
  IC50: 358 µM
Human fibroblasts (HFF)
  IC50: > 100 µM
[13]
  IC50: 5 to 10 µM
[14]
  LC50: 55 µM

## GLWSKIKEVGKEAAKAAAKAAGKAALGAVSEAV-NH2 (C-terminus assumed) [dermaseptin B2, reference compound]
[15]
  IC50: 2.5 µM
Human THP-1 monocytes
  IC50: ~7 µM
